A short description of data set [1]: Pharmacokinetic study in rats after oral administration. It is filed as in vivo, Wistar rats. The following applies: rat. As to the method: In Vivo Studies. Male Wistar rats (Harlan, Israel), 275-300 g in weight, were used for all surgical procedures. Animals were anesthetized for the period of surgery by intraperitoneal injection of 1 mL/kg of ketamine/xylazine solution (9:1), placed on a heated surface, and maintained at 37° C. (Harvard Apparatus Inc., Holliston, MA). An indwelling cannula was placed in the right jugular vein of each animal for systemic blood sampling, by a method described before. The cannula was tunneled beneath the skin and exteriorized at the dorsal part of the neck. After completion of the surgical procedure, the animals were transferred to cages to recover overnight (12-18 h). During this recovery period, food but not water was deprived. Throughout the experiment, free access to food was available 4 h post oral administration. Animals were randomly assigned to the different experimental groups. […] Dispersed 12P SNEDDS (5 mg/kg) was administered to the animals by oral gavage (n=3). Systemic blood samples (0.35 mL) were taken at 5 min predose, 20, 40, 60, 90, 180, 240, and 360 min postdose. To prevent dehydration, equal volumes of physiological solution were administered to the rats following each withdrawal of blood sample. Plasma was separated by centrifugation (5322 g, 10 min) and stored at −20° C. pending analysis. In the 12P pharmacokinetic study, the parent peptide, 12, was analytically determined.
Pharmacokinetic Analysis. The area under the plasma concentration-time curve (AUC) was calculated by using the trapezoidal rule with extrapolation to infinity by dividing the last measured concentration by the elimination rate constant (kel). The elimination rate constant values were determined by a linear regression analysis using the last points on the logarithmic plot of the plasma concentration versus the time curve. Pharmacokinetic parameters, such Tmax, Cmax, clearance (CL), volume of distribution (V), and bioavailability, were calculated using noncompartmental analysis.
Analytical Methods. Plasma or BBMV samples were spiked with metoprolol (1.5 μg/mL) as an internal standard. ACN was added to each sample (2:1) and vortex-mixed for 1 min. The samples were then centrifuged (14 635 g, 10 min), and the supernatant was transferred to fresh glass tubes and evaporated to dryness (Vacuum Evaporation System, Labconco, Kansas City, MO, USA). Then, the glass tubes were reconstituted in 80 μL of mobile phase and centrifuged a second time (14 635 g, 10 min). The amount of the compounds was determined using an HPLC-MS Waters 2695 Separation Module, equipped with a Micromass ZQ detector. The resulting solution was injected (10 μL) into the HPLC system. The system was conditioned as follows: for parent drug peptides (including 12), a Kinetex 2.6 μm HILIC 100 Å, 100 mm×2.1 mm column (Phenomenex, Torrance, CA, USA), an isocratic mobile phase, and an acetonitrile:water:ammonium acetate buffer 50 mM (70:10:20, v/v/v) was used; and for the prodrug peptides (including 12P), a Luna (Phenomenex) 3 μm C8 100 Å, 100 mm×2.0 mm column and an isocratic mobile phase of ACN:water supplemented with 0.1% formic acid (70:30, v/v) and a flow rate of 0.2 mL/min at 25° C. was used. The limit of quantification for all of the peptides and prodrugs was 25 ng/mL.
The pharmacokinetic in-vivo study allows a further evaluation of the prodrug concept in the whole animal. The PK studies were performed in conscious Wistar male rats. An indwelling cannula was implanted in the jugular vein 24 hours before the PK experiment to allow full recovery of the animals from the surgical procedure. Animals (n=4) received either an IV bolus dose or oral dose of the investigated compound. Blood samples (with heparin, 15 U/ml) were collected at several time points for up to 6 hours post administration and was assayed by HPLC-MS method. Non-compartmental pharmacokinetic analysis was performed using WinNonlin software.

The nature of data set [2]: Pooled Human Liver Microsome assay. Format: in vitro ADME. An excerpt: Peptide 12 P was subjected to additional in vitro assay to evaluate the involvement of liver metabolism using the Pooled Human Liver Microsome assay. Liver microsomes are subcellular particles derived from the endoplasmic reticulum of hepatic cells. These microsomes are a rich source of drug metabolizing enzymes, including cytochrome P-450. Microsome pools from various sources are useful in the study of xenobiotic metabolism and drug interactions. […] The presence of ketokonazole inhibits the metabolism by the liver enzymes in some degree. However, Incubating peptide 12P with self-assembling pro-nano lipospheres (PNL), led to much better inhibition of cytochromes P-450.

The test system of another data set is CYP3A4. Briefly: Enzymatic inhibition study in isolated rat CYP3A4 microsomes. It is filed as in vitro ADME. The following applies: rat, pooled rat CYP3A4 microsomes, pH 7.4; with ketoconazole; 60 min; read-out: concentration remaining after incubation, with ketoconazole.
A further data set has as its system rat CYP3A4 microsomes. The data set is described as above. The following applies: 60 min. It is filed as in vitro ADME.
Data set [3] in a line: Metabolic stability in rat plasma. The following applies: 37° C., up to 90 minutes. Format: in vitro ADME. How it is done: The enzymatic reactions were performed as follows: 2 mM stock solutions of the tested compounds were diluted with serum or purified brush border membrane vesicles (BBMVs) solution to a final concentration of 0.5 mM. During incubation at 37° C. samples were taken for a period of 90 minutes. The enzymatic reaction was stopped by adding 1:1 v/v of ice cold acetonitrile and centrifuge (4000 g, 10 min) before analysis. Preparation of BBMVs: The BBMVs was prepared from combined duodenum, jejunum, and upper ileum (male Wistar rats) by a Ca^++ precipitation method. Purification of the BBMVs was assayed using GGT, LAP and alkaline phosphatase as membrane enzyme markers
Peptides 12 and 12p were subjected to rat plasma and followed their degradation. Rat plasma is known to be rich with esterases.

A short description of data set [4]: Caco-2 permeability study (Examples 1, 2 and 4, Table 3). Format: in vitro ADME, human. The following applies: Caco-2, unit inferred; read-out: Caco-2 A-to-B Papp (converted).
Description: The culture growth medium consisted of DMEM supplemented with 10% heat-inactivated FBS, 1% MEM-NEAA, 2 mM 1-glutamine, 1 mM sodium pyruvate, 50,000 units Penicillin G Sodium and 50 mg Streptomycin Sulfate (Biological Industries). The medium was replaced every other day.
Cells (passage 55-60) were seeded at density of 25×10^5 cells/cm^2 on untreated culture inserts of polycarbonate membrane with 0.4 μm pores and surface area of 1.1 cm^2. Culture inserts containing Caco-2 monolayer were placed in 12 mm transwell plates (Corning). Culture medium was replaced every other day. Transepithelial Electrical Resistance (TEER) values were measured by Millicell ERS-2 System (Millipore) a week after seeding up to experiment day (21-23 days) to ensure proliferation and differentiation of the cells. When the cells were fully differentiated and TEER values became stable (200-500 Ω·cm^2). The TEER values were compared to control inserts containing only the medium.
The experiment was initiated by replacing the medium from both sides by apical (600 μl) and basolateral (1500 μl) buffers, both warmed to 37° C. The Cells were incubated with the buffers solutions for 30 min at 37° C. on a shaker (100 cycles/min). The apical buffer was replaced by apical buffer containing 10 μg/ml of the cyclic peptides of the invention. 50 μl samples were taken from the apical side immediately at the beginning of the experiment, resulting in 550 μl apical volume during the experiment.
Permeability Coefficient (Papp) for each compound was calculated from the linear plot of drug accumulated versus time, using the following equation:
Where dq/dt is steady state appearance rate of the compound on the receiver side, Co is the initial concentration of the drug on the donor side, and A is the exposed tissue surface area (1.1 cm^2).
Transport studies were performed through the Caco-2 monolayer mounted in an Ussing-type chamber set-up with continuous trans-epithelial electrical resistance (TEER) measurements to assure TEER between 800 and 1200 Sr cm^2. HBSS supplemented with 10 mM MES and adjusted to pH 6.5 were used as transport medium in the donor compartment and pH 7.4 in the acceptor compartment. The donor solution contained the test compound.
Permeability mechanism of compounds is studied by evaluating the Papp of a compound from the apical to the basolateral (A-to-B) membrane and its Papp from the basolateral to the apical membrane (B-to-A). The A-to-B assay simulates passive and transporter-mediated permeability. The B-to-A assay is essential complementary experiment indicative of the activity of P-gp. The ratio of the A-to-B and B-to A Papps (efflux ratio) is calculated to determine the permeability mechanism.
A further data set can be described thus: physchem. The note with it: pH 7.4, LogD, pH 7.4, reported value (mean or bound).
The conditions of data set [5]: in vivo; cited from earlier work.
[6] abbreviates: oral 5 mg/kg, peptide 12 measured in plasma, 12P given as dispersed 12P SNEDDS.

Consider three molecules from patent publication US11965041B2, “N-methylated cyclic peptides and their prodrugs” (TECHNISCHE UNIVERSITAET MUENCHEN, priority 2017, dated 2024).

SMILES strings stand for the structures. Numbered stars: 1 amine (or outer) side, 2 acyl side, 3 side chain; on linkers, the order of the positions; unused ones are H or OH. Square brackets hold non-standard residues; d marks the D form. Peptide text beside a SMILES is read from it. X1 = CCCCCCOC(=O)N=C(NCCC[C@@H](N[*:1])C(=O)[*:2])NC(=O)OCCCCCC; NMeV = CN[C@H](C(=O)O)C(C)C; dNMeA = CN[C@H](C)C(=O)O

As for `CCCCCCOC(=O)N=C(NCCC[C@@H]1NC(=O)[C@@H](C)N(C)C(=O)[C@H](C)N(C)C(=O)[C@H](C)NC(=O)[C@H](CC(=O)OC)NC(=O)CNC1=O)NC(=O)OCCCCCC` [Peptide 12P, c(*aR(Hoc)2GD(OMe)A*A)], the “relative bioavailability vs peptide 12” value in [1] (after oral administration) is on record as “about 70 fold”. For the same molecule, in data set [1] (setting [6]), the AUC worked out at 216.9 ± 75.6 µg·min/mL, the Cmax is 1993 ± 967 ng/mL, the F came out at 43.8 ± 14.9% and the Kel is 0.009 ± 0.0001 min⁻¹. Moreover, in data set [1] (setting [6]), the “Tmax, Median (range)” value is reported as 20 (20-60) min. Also, the “metabolism by Pooled Human Liver Microsomes, in words” value in data set [2] is “substrate for P-gp efflux system and cytochromes P-450”. The remaining at 1 h, 1 µM in the data set on CYP3A4 is 67 ± 3.61%. For the same molecule, the “concentration remaining after incubation, alone” value in the data set on rat CYP3A4 microsomes (12P alone) is given as 14.0±4.06%. Also, in the data set on rat CYP3A4 microsomes (dispersed 12P SNEDDS), the “concentration remaining after incubation, with SNEDDS” value is listed as 102.2±19.7%. The “metabolic stability in rat plasma, in words” value in [3] was “degraded”. Besides, the Papp A→B in data set [4] is 0.785 ×10⁻⁶ cm/s.
For `CCCCCCOC(=O)N=C(NCCC[C@H]1NC(=O)[C@H](C(C)C)N(C)C(=O)[C@@H](C)N(C)C(=O)[C@@H](C)NC(=O)[C@@H](CC(=O)OC)NC(=O)CNC1=O)NC(=O)OCCCCCC` [#29P*] (cyclo(G[dD](OMe)[dA][dNMeA][NMeV][X1])), the “permeability in the PAMPA-GIT model system” value is reported as over -5. Moreover, the “Papp (AB), replicate 1” value in the data set on Caco-2 cells is on record as 0.1 10^−6 cm/s.
On to `CC(C)[C@H]1C(=O)N[C@@H](CCCN=C(N)N)C(=O)NCC(=O)N[C@@H](CC(=O)O)C(=O)N[C@H](Cc2ccccc2)C(=O)N1C` [Cilengitide, cyclo(RGDf-(NMe)V)], for which the “permeability in the PAMPA-GIT model system” value is listed as “low permeability”. The log distribution coefficient (logD) at 1 h in “physchem” is under -1. The “half live in man” value in data set [5] is given as 4 h.
